From EP0394553A2, “Use of fluorine containing pyridone carboxylic acid derivatives for preparing a medicament for the treatment of HIV infections” (DAIICHI PHARMACEUTICAL CO., LTD., priority 1989, dated 1990)

Tests used:
HIV (LAV 1) = assay: microbe, parasite or virus in culture; conditions: for Viable cell count / Viral antigen-positive cell percentage: 4-day addition
Description: (§1) Human T cell-derived, T4 antigen-positive CEM cells (provided by the Institut Pasteur, France) were used as host cells of HIV. Cell culture was carried out in a carbon dioxide-containing atmosphere in an incubator maintained at 37°C according to a conventional method [cf. […] The culture supernatant (5×10⁶ TCID₅₀/ml) obtained by subjecting CEM cells to HIV (LAV 1) infection and stored at -70°C was used as the HIV source.
The medium for cell culture (10 ml) placed in a plastic culture flask (25 cm²) was inoculated with CEM cells at a cell density of 2.5×10⁵ cells/ml. After 3 days of incubation, the culture was transferred to a 15-ml centrifuge tube and subjected to centrifugation at 1,000 revolutions per minute for 5 minutes for sedimentation of cells and removal of the culture medium.
The stock viral suspension was added to the host cells thus prepared to an MOI of 0.05 and the mixture was maintained at 37°C for 90 minutes with stirring at 30-minute intervals for viral adsorption. The medium was added to HIV-infected cells to a cell density of 5.0×10⁵ cells/ml to give an HIV-infected cell suspension.
A mixture (1.0 ml) of the three constituents mentioned below was added to each well of a 24-well plastic culture plate and the test substance final concentration was adjusted to 10 mcg/ml, 5 mcg/ml, 2.5 mcg/ml or 1 mcg/ml. The "no addition" wells (0 mcg/ml) served as controls.
After 4 days of incubation following viral infection, the cells in each well on the 24-well culture plate were suspended uniformly by pipetting and a 0.5-ml portion of the suspension was separated. A 2.0-ml portion of test substance-free fresh medium was added to the remaining 0.5-ml portion of the cell suspension, followed by incubation.
Seven days after viral infection, pipetting was performed to give a uniform cell suspension in each well and a 0.5-ml portion of the suspension was separated.
Incubation was continued and, 10 days after viral infection, a uniform cell suspension was produced in the same manner in each well and a 1.5-ml portion thereof was separated. A fresh 2.0-ml portion of the medium free of (or containing) the test substance was added to the well, followed by further incubation.
Fifteen days after viral infection, the cells in each well were suspended uniformly in the same manner in the medium and a 2.0-ml portion of the suspension was separated. A fresh 2.0-ml portion of the medium free of (or containing) the test substance was added to the remaining 0.5 ml of the cell suspension and incubation was continued.
Medium exchange was performed in the same manner 20 days and 25 days after viral infection.
The cell suspensions collected 4 days, 7 days, 10 days, 20 days and 30 days after viral infection were tested for viable cell count and viable cell percentage by trypan blue staining. At the same time, viral antigen-positive cell percentage determination was carried out by immunofluorescence using an anti-HIV antiserum isolated from a healthy carrier of HIV.
The numerical values given each is the mean for the respective two wells on the culture plate. The viable cell count is the total cell count minus the count of dead cells stained with trypan blue. The viable cell percentage is the percentage of viable cells among all the cells including dead cells. The viral antigen-positive cell percentage is the percentage of cells indicating antigen expression as found among all the cells including dead cells.

CEM cells = assay: Cytotoxicity in uninfected CEM cells (trypan blue staining); conditions: at concentrations not exceeding 10 mcg/ml
Description: as §1
The cell culture medium (10 ml) placed in a plastic culture flask (25 cm²) was inoculated with CEM cells to a cell density of 2.5×10⁵ cells/ml and incubation was performed for 3 days. Then, the culture was transferred to a 15-ml plastic centrifuge tube and centrifuged at 1,000 revolutions per minute for 5 minutes for medium removal. A fresh portion of the medium was added to the cells, the cell density being adjusted to 5.0×10⁵ cells/ml. The following mixture (1.0 ml) containing the cell suspension prepared in the above manner was incubated in a 24-well plastic culture plate for 4 days:
The cells in each well were then suspended uniformly in the medium by pipetting and a 0.5-ml portion of the suspension was separated.
A fresh 2-ml portion of the test substance-free medium was added to the remaining cell suspension (0.5 ml) and, after a further 3-day incubation, a cell suspension was produced in the same manner and a 0.5-ml portion thereof was removed.
The cell suspensions collected in the above manner were subjected to viable cell count and viable cell percentage determinations by trypan blue staining.

in vivo = conditions: mouse, po
[1] = Human immunodeficiency virus 1, CCRF-CEM, 96 h, read-out: Viable cell percentage

| SMILES | Viable cell count (HIV (LAV 1); 1 mcg/ml, after 4 days) | Viral antigen-positive cell percentage (HIV (LAV 1); 1 mcg/ml, after 4 days) | Viable cell count (HIV (LAV 1); 1 mcg/ml, after 7 days) | Viral antigen-positive cell percentage (HIV (LAV 1); 1 mcg/ml, after 7 days) | Viable cell count (HIV (LAV 1); 1 mcg/ml, after 10 days) | Viable cell count (HIV (LAV 1); 1 mcg/ml, after 20 days) | Viable cell count (HIV (LAV 1); 1 mcg/ml, after 30 days) | Viable cell count (HIV (LAV 1); 2.5 mcg/ml, after 4 days) | Viral antigen-positive cell percentage (HIV (LAV 1); 2.5 mcg/ml, after 4 days) | Viable cell count (HIV (LAV 1); 2.5 mcg/ml, after 7 days) | Viral antigen-positive cell percentage (HIV (LAV 1); 2.5 mcg/ml, after 7 days) | Viable cell count (HIV (LAV 1); 2.5 mcg/ml, after 10 days) | Viable cell count (HIV (LAV 1); 2.5 mcg/ml, after 20 days) | Viable cell count (HIV (LAV 1); 2.5 mcg/ml, after 30 days) | Viable cell count (HIV (LAV 1); 5 mcg/ml, after 4 days) | Viral antigen-positive cell percentage (HIV (LAV 1); 5 mcg/ml, after 4 days) | Viable cell count (HIV (LAV 1); 5 mcg/ml, after 7 days) | Viral antigen-positive cell percentage (HIV (LAV 1); 5 mcg/ml, after 7 days) | Viable cell count (HIV (LAV 1); 5 mcg/ml, after 10 days) | Viable cell count (HIV (LAV 1); 5 mcg/ml, after 20 days) | other results |
| --- | --- | --- | --- | --- | --- | --- | --- | --- | --- | --- | --- | --- | --- | --- | --- | --- | --- | --- | --- | --- | --- |
| Cl.O.O=C(O)c1cn(C2CC2)c2cc(N3CCNCC3)c(F)cc2c1=O [CPFX, 1-cyclopropyl-6-fluoro-1,4-dihydro-4-oxo-7-(1-piperazinyl)-3-quinoline carboxylic acid hydrochloride hydrate] | 220 × 10⁴ cells/ml | 83% | 86 × 10⁴ cells/ml | 62% | 52 × 10⁴ cells/ml | 8 × 10⁴ cells/ml | 33 × 10⁴ cells/ml | 200 × 10⁴ cells/ml | 87% | 98 × 10⁴ cells/ml | 60% | 320 × 10⁴ cells/ml | 220 × 10⁴ cells/ml | 360 × 10⁴ cells/ml | 220 × 10⁴ cells/ml | 92% | 76 × 10⁴ cells/ml | 67% | 310 × 10⁴ cells/ml | 280 × 10⁴ cells/ml | Viral antigen-positive cell percentage (HIV (LAV 1); 1 mcg/ml, after 10 days): 37%; Viral antigen-positive cell percentage (HIV (LAV 1); 1 mcg/ml, after 20 days): 33%; Viral antigen-positive cell percentage (HIV (LAV 1); 2.5 mcg/ml, after 10 days): 31%; Viral antigen-positive cell percentage (HIV (LAV 1); 2.5 mcg/ml, after 20 days): 3%; Viral antigen-positive cell percentage (HIV (LAV 1); 2.5 mcg/ml, after 30 days): ≦1%; Viral antigen-positive cell percentage (HIV (LAV 1); 5 mcg/ml, after 10 days): 29%; Viral antigen-positive cell percentage (HIV (LAV 1); 5 mcg/ml, after 20 days): 4%; Viable cell count (HIV (LAV 1); 5 mcg/ml, after 30 days): 320 × 10⁴ cells/ml; Viral antigen-positive cell percentage (HIV (LAV 1); 5 mcg/ml, after 30 days): ≦1%; Viable cell count (HIV (LAV 1); 10 mcg/ml, after 4 days): 180 × 10⁴ cells/ml; Viral antigen-positive cell percentage (HIV (LAV 1); 10 mcg/ml, after 4 days): 88%; Viable cell count (HIV (LAV 1); 10 mcg/ml, after 7 days): 65 × 10⁴ cells/ml; Viral antigen-positive cell percentage (HIV (LAV 1); 10 mcg/ml, after 7 days): 57%; Viable cell count (HIV (LAV 1); 10 mcg/ml, after 10 days): 250 × 10⁴ cells/ml; Viral antigen-positive cell percentage (HIV (LAV 1); 10 mcg/ml, after 10 days): 27%; Viable cell count (HIV (LAV 1); 10 mcg/ml, after 20 days): 300 × 10⁴ cells/ml; Viral antigen-positive cell percentage (HIV (LAV 1); 10 mcg/ml, after 20 days): 10%; Viable cell count (HIV (LAV 1); 10 mcg/ml, after 30 days): 330 × 10⁴ cells/ml; Viral antigen-positive cell percentage (HIV (LAV 1); 10 mcg/ml, after 30 days): ≦1%; cytotoxicity (CEM cells): no cytotoxicity |
| CCn1cc(C(=O)O)c(=O)c2cc(F)c(N3CCNCC3)nc21 [ENX, 1-ethyl-6-fluoro-1,4-dihydro-4-oxo-7-(1-piperazinyl)-1,8-naphthyridine-3-carboxylic acid sesqui-hydrate] | 220 × 10⁴ cells/ml | 88% | 64 × 10⁴ cells/ml | 70% | 29 × 10⁴ cells/ml | 7 × 10⁴ cells/ml | 0 × 10⁴ cells/ml | 240 × 10⁴ cells/ml | 90% | 67 × 10⁴ cells/ml | 65% | 30 × 10⁴ cells/ml | 1 × 10⁴ cells/ml | 2 × 10⁴ cells/ml | 210 × 10⁴ cells/ml | 93% | 58 × 10⁴ cells/ml | 68% | 78 × 10⁴ cells/ml | 11 × 10⁴ cells/ml | LD50 (in vivo): ≥ 4000 mg/kg; Viable cell count (HIV (LAV 1); 5 mcg/ml, after 30 days): 310 × 10⁴ cells/ml; Viral antigen-positive cell percentage (HIV (LAV 1); 5 mcg/ml, after 30 days): ≦1%; Viable cell count (HIV (LAV 1); 10 mcg/ml, after 4 days): 140 × 10⁴ cells/ml; Viral antigen-positive cell percentage (HIV (LAV 1); 10 mcg/ml, after 4 days): 88%; Viable cell count (HIV (LAV 1); 10 mcg/ml, after 7 days): 52 × 10⁴ cells/ml; Viral antigen-positive cell percentage (HIV (LAV 1); 10 mcg/ml, after 7 days): 68%; Viable cell count (HIV (LAV 1); 10 mcg/ml, after 10 days): 150 × 10⁴ cells/ml; Viral antigen-positive cell percentage (HIV (LAV 1); 10 mcg/ml, after 10 days): 30%; Viable cell count (HIV (LAV 1); 10 mcg/ml, after 20 days): 178 × 10⁴ cells/ml; Viral antigen-positive cell percentage (HIV (LAV 1); 10 mcg/ml, after 20 days): 5%; Viable cell count (HIV (LAV 1); 10 mcg/ml, after 30 days): 379 × 10⁴ cells/ml; Viral antigen-positive cell percentage (HIV (LAV 1); 10 mcg/ml, after 30 days): ≦1%; viability at 1 µg/mL (HIV (LAV 1); [1]): 95%; viability at 2.5 µg/mL (HIV (LAV 1); [1]): 95%; viability at 5 µg/mL (HIV (LAV 1); [1]): 98%; viability at 10 µg/mL (HIV (LAV 1); [1]): 97%; cytotoxicity (CEM cells): no cytotoxicity |
